Laboratory results: publication PMC5522996, “Big conductance calcium‐activated potassium channel openers control spasticity without sedation” (British Journal of Pharmacology, 2017)

Tests used:
[1] = target: CYP450 2A6 (Homo sapiens, UniProt P11509); assay: CYP450 inhibition of substrate binding
Excerpt: IC50 Inhibition of substrate binding
(§3) Inhibition of binding of either 3-cyano-7-ethoxycoumarin, dibenzylfluorescein or 7-benzyoxy-4-
(§4) (trifluoromethyl) coumarin in human enzyme transfected BTI NN-5B1-4 cells or Sf9 insect cells or
(§5) inhibition of dextromethorphan substrate to CYP450 2D6 in liver microsomes.

[2] = target: CYP450 2B6 (Homo sapiens, UniProt P20813)
Excerpt: IC50 Inhibition of substrate binding
as §3, §4, §5

[3] = test system: mice; assay: Visible sedation, behaviour and tolerability in mice; conditions: 1 mg·kg^−1 i.v.
[4] = test system: spastic ABH mice with EAE; assay: Spasticity: resistance to hindlimb flexion against a strain gauge
[5] = test system: mouse vas deferens; assay: Electrically‐evoked contraction of the mouse vas deferens; type: cell-based; conditions: for EC50: Mus musculus, read-out: EC50, inhibition of electrically‐evoked contraction
Experimental: Vasa deferentia were obtained from outbred MF‐1 mice and mounted vertically in a 4 mL organ bath at an initial tension of 0.5 g. The baths contained Mg^2+‐free Krebs solution (NaCl 118.2 mM, KCl 4.75 mM, KH2PO4 1.19 mM, NaHCO3 25.0 mM, glucose 11.0 mM and CaCl2·6H2O 2.54 mM), which was kept at 35–36°C and bubbled with 95% O2 and 5% CO2. […] Contractions were monitored by a computer using a data recording and analysis system as described previously (Ross et al., 2001). After placement in an organ bath, each tissue was subjected to a stimulation‐free period of 10 min and then stimulated for 10 min. Tissues were then subjected to alternate periods of stimulation (5 min) and rest (10 min) until consistent twitch amplitudes were obtained. This equilibration procedure was followed by a stimulation‐free period of 25 min. Tissues were then stimulated for 5 min after which the first agonist addition was made and stimulation continued until the end of the experiment.

[6] = test system: CB1 receptor‐deficient ABH mice; assay: Spasticity in CB1 receptor‐deficient mice; type: in vivo, mouse; conditions: 5 mg·kg^−1 i.v., 30 min (Figure 5A)
[7] = test system: ABH mice; assay: Open‐field activity monitoring (hypomotility); type: in vivo, mouse; conditions: 1 mg·kg^−1 i.v., 30 min after administration
Experimental: Motor activity was assessed using 27.9 × 27.9 cm open field activity monitor chambers and computer software (Med Associates Inc, St. Albans, VT, USA.). This was typically performed in a darkened room. Recordings were initiated once the mouse entered the chamber and continued for 5 min. These chambers, allowing four simultaneous recordings of individual mice and were fitted with infrared beams that could detect movement in the X, Y planes. The total distance travelled (cm) was recorded. Results are expressed as mean ± SEM. These were analysed by Student's paired t‐test or a one‐way ANOVA with Bonferroni post hoc test, using SigmaStat V3/Sigmaplot V9 or V11 software (Systat Ltd Hounslow, UK. Al‐Izki et al., 2012).

[8] = test system: ABH mice; assay: Temperature testing (hypothermia); type: in vivo, mouse
Experimental: These recordings were assessed 20 min following administration of compounds. Results are expressed as mean ± SEM, and were analysed by Student's t‐test or a one‐way ANOVA with Bonferroni post hoc test using Sigma/StatV3/Sigmpaplot V9 or V11 software (Pryce et al., 2014).

[9] = test system: rat mesenteric artery; design: method as in Hoi et al., 2007; conditions: ref Hoi et al., 2007; read-out: EC50, vasorelaxation of rat mesenteric arteries; cited from earlier work
[10] = Plasma, brain and spinal cord levels in ABH mice with spastic EAE; type: in vivo, mouse; conditions: after 5 mg·kg^−1 p.o. VSN16R, ABH mice with spastic EAE
Experimental: (§1) The stability of compounds when subjected to hepatic and plasma degradation was assessed in vitro by Inpharmatica, Cambridge, UK. Compounds (1 μM) were incubated with either pooled mouse liver microsomes (0.1 mg protein mL^−1) or pooled mouse plasma at 37°C for 0, 5, 10, 20 and 40 min before termination with acetonitrile containing warfarin as an analytical internal standard. Samples were centrifuged, and the resultant supernatant analysed for parent compound. The mass responses at baseline were taken as the 100% reference values against which the disappearance of the compound was measured. The natural log of the % remaining values was used to generate linear plots of disappearance of the compounds. Half‐life values were calculated from the slope of these plots. Hepatocyte metabolism was assessed by Cyprotex, Macclesfield, and 10 μM VSN16R was incubated with primary mouse, rat, monkey (Macaque) and human hepatocytes for 1 h, and the presence of metabolites was assessed using liquid […] mass spectroscopy. The stability of VSN16R was assessed in vivo by Inpharmatica, Cyprotex and Charles Rivers, Cambridge. Blood (plasma) samples were obtained prior to and 5 min to 24 h after drug administration of 2–5 mg·kg^−1 i.v. or 5 mg·kg^−1 p.o. VSN16R into outbred mice and rats (n = 3 per time point). In addition, plasma, brain and spinal cord samples were obtained from ABH with spastic EAE. Immediately after blood collection, the brain and spinal cord were removed and then stored at −20°C prior to assay. Tissue samples were weighed, homogenized and centrifuged, and the lysates generated. Brain lysates and plasma were assayed by LC–MS methods by Inpharmatica/Charles Rivers, Cambridge, UK. This was also performed using a Waters Xevo TQ or API4000, AB Sciex mass spectrometer using spiked samples as standards. PK Solutions Software (Summit Research Services, Montrose, CO, USA), AB Sciex Analyst software combined with Thermo Fisher Scientific Watson LIMS processing and reporting software or WinNonLin pharmacokinetic or PK solutions 2.0 software (Summit Research Services, Montrose CO, USA) were used to produce PK parameters. Data are expressed as mean ± SEM. The detection limit of VSN16R was 2 ng·mL^−1 in plasma and brain and 14 ng·mL^−1 in spinal cords. The detection limit of VSN22R was 2 ng·mL^−1 in plasma and 0.1 ng·mL^−1 for VSN44R in plasma. Pharmacokinetics in toxicological samples in rats (n = 6 per group), dogs (n = 6 per group) and humans (n = 6 per group) were performed by Charles Rivers (Edinburgh, UK).

[11] = Phase I pharmacokinetics in healthy humans; type: in vivo, human; conditions: male, human, plasma, oral; twice daily dosing of VSN16R; read-out: Steady‐state plasma levels
Experimental: as §1, with “cords.” for “cords. The detection limit of VSN22R was 2 ng·mL^−1 in plasma and 0.1 ng·mL^−1 for VSN44R in plasma. Pharmacokinetics in toxicological samples in rats (n = 6 per group), dogs (n = 6 per group) and humans (n = 6 per group) were performed by Charles Rivers (Edinburgh, UK).”

[12] = target: T1, BKCa channel (Homo sapiens, UniProt Q12791+Q86W47); assay: Single‐channel inside‐out patch clamp, EA.hy926 cells; type: cell-based; conditions: 3 μM, inner surface of membrane, 40 mV, 0.3 μM free Ca^2+
T1 construct: host or cells: EA.hy926 endothelial cells
Experimental: The human EA.hy926 endothelial cells (ATCC, Manassas, USA) were grown in DMEM containing 10% FCS and 1% HAT (5 mM hypoxanthine, 20 μM aminopterin and 0.8 mM thymidine) and were maintained in an incubator at 37°C in 5% CO2 atmosphere (Bondarenko et al., 2013). Human HNC‐2 neuronal cells were obtained from ATCC. For experiments, cells were plated on glass coverslips. Single‐channel recordings were obtained from excised inside‐out membrane patches in symmetrical solutions using the patch‐clamp technique. All patch‐clamp experiments were performed at room temperature with the use of a water hydraulic micromanipulator (WR‐6, Narishige, Japan). […] The pipettes were filled with 140 mM KCl, 10 mM HEPES, 1 mM MgCl2, 5 mM EGTA and […] CaCl2 buffered to pH 7.2 by adding KOH. Cells were super‐perfused with a bath solution containing 140 mM NaCl, 5 mM KCl, 1.2 mM MgCl2, 10 mM HEPES, 10 mM glucose and 2.4 mM CaCl2. Following gigaseal formation, bath solution was switched to the following: 140 mM KCl, 10 mM HEPES, 1 mM MgCl2, 5 mM EGTA and a designated free Ca^2+ concentration, which was adjusted by adding different amounts of CaCl2 buffered to pH 7.2. (Bondarenko et al., 2011; Bondarenko et al., 2013). Single‐channel activity was expressed as NPo, where N represents the number of functional ion channels in the membrane patch and Po represents the open channel probability determined from idealized traces (Bondarenko et al., 2011). NPo was obtained from ≥20 s of continuous recording under each experimental condition. The effect of VSN16R was estimated after 3 min of continuous exposure to VSN16R‐containing solution. Data were analysed by ANOVA, and statistical significance was evaluated using Scheffés post hoc test of the Prism 5 software for Windows (GraphPad Software).

[13] = Stability in pooled mouse plasma; type: in vitro ADME; conditions: 37°C, upper limit 100 min, read-out: t ½ in plasma
Experimental: (§2) The stability of compounds when subjected to hepatic and plasma degradation was assessed in vitro by Inpharmatica, Cambridge, UK. Compounds (1 μM) were incubated with either pooled mouse liver microsomes (0.1 mg protein mL^−1) or pooled mouse plasma at 37°C for 0, 5, 10, 20 and 40 min before termination with acetonitrile containing warfarin as an analytical internal standard. Samples were centrifuged, and the resultant supernatant analysed for parent compound. The mass responses at baseline were taken as the 100% reference values against which the disappearance of the compound was measured. The natural log of the % remaining values was used to generate linear plots of disappearance of the compounds. Half‐life values were calculated from the slope of these plots. Hepatocyte metabolism was assessed by Cyprotex, Macclesfield, and 10 μM VSN16R was incubated with primary mouse, rat, monkey (Macaque) and human hepatocytes for 1 h, and the presence of metabolites was assessed using liquid […] mass spectroscopy. The stability of VSN16R was assessed in vivo by Inpharmatica, Cyprotex and Charles Rivers, Cambridge. Blood (plasma) samples were obtained prior to and 5 min to 24 h after drug administration of 2–5 mg·kg^−1 i.v. or 5 mg·kg^−1 p.o. VSN16R into outbred mice and rats (n = 3 per time point). […] Data are expressed as mean ± SEM. […]

[14] = test system: BKCa channels; design: method as in Denson DD et al. Brain Res 638:61; conditions: ref Denson DD et al. Brain Res 638:61; read-out: EC50, inhibition of inside-out current of BKCa channels; cited from earlier work
[15] = test system: rat mesenteric artery; assay: Methoxamine‐evoked contraction of rat mesenteric artery; type: cell-based; conditions: 200 µM
Experimental: Vessels were equilibrated and set to a basal tension of 2 to 2.5 mN. The integrity of the endothelium was assessed by pre‐contracting the vessel with 10 μM methoxamine (an α1‐adrenoceptor agonist), followed by relaxation with 10 μM carbachol (a muscarinic acetylcholine receptor agonist); vessels showing relaxations of greater than 90% were designated as endothelium‐intact. When the endothelium was not required, it was removed by rubbing the intima with a human hair; carbachol‐induced relaxation of less than 10% indicated successful removal. After the test for endothelial integrity, vessels were left for 30 min and then pre‐contracted with 10 μM methoxamine. This was followed by construction of a cumulative concentration–relaxation curve to VSN16R (10 nM–1 μM). […] Most experiments were performed in matched vessels; effects of blockers or endothelial removal were compared with the control responses obtained in separate vessels of the same rats. All relaxant responses are expressed as percentage relaxation of the tone induced by methoxamine. Values are given as mean ± SEM. Statistical comparisons of concentration‐dependent responses were made by two‐way ANOVA using Prism 4 (GraphPad Software, Inc, San Diego, CA, USA).

[16] = Stability in pooled mouse liver microsomes; type: in vitro ADME; conditions: microsomes, 37°C, upper limit 100 min, read-out: t ½ in liver microsomes
Experimental: as §2

Sequence of CYP450 2B6 (P20813 whole entry): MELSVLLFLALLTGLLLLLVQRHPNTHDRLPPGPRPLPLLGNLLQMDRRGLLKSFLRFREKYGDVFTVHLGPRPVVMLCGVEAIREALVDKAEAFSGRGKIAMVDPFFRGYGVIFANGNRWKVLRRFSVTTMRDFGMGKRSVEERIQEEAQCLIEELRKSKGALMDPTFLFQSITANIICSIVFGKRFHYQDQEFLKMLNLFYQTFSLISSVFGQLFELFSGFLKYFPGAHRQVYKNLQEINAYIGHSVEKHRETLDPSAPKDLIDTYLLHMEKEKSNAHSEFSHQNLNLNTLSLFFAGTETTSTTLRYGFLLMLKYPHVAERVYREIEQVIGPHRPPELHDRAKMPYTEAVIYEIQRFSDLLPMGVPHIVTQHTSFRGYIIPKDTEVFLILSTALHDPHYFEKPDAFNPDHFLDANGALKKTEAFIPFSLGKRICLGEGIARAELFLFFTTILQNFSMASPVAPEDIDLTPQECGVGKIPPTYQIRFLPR
T1 sequence (Q12791 whole entry): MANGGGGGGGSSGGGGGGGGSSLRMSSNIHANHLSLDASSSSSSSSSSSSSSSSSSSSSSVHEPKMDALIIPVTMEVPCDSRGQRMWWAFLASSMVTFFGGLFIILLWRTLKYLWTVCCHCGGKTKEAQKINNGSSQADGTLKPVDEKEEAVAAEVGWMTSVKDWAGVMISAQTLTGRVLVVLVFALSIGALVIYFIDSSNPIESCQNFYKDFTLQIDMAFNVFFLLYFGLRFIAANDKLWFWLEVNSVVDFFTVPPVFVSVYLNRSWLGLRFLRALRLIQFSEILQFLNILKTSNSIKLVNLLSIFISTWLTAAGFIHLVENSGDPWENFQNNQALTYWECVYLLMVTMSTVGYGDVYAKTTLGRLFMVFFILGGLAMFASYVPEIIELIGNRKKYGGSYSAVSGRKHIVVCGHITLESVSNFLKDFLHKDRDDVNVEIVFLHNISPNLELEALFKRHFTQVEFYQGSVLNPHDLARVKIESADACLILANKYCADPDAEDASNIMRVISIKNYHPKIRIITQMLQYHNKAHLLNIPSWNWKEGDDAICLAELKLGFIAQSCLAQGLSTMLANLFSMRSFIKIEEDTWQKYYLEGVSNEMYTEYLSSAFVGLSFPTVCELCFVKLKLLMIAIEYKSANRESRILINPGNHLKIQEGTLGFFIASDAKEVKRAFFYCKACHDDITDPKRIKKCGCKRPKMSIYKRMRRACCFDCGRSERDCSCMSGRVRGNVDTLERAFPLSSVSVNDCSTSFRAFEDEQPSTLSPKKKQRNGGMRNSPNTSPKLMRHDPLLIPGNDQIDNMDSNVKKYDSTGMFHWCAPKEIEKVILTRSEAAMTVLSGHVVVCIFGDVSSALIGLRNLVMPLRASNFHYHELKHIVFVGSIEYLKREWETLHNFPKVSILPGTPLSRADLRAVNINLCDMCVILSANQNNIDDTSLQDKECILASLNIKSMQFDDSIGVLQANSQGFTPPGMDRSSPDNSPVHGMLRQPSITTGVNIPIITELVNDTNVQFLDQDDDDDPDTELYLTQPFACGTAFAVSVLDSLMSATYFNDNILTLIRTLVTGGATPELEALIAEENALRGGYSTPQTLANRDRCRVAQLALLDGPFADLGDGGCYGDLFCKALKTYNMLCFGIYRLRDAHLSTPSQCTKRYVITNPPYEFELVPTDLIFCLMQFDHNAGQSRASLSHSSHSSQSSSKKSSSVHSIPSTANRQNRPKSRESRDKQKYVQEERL
T1 sequence (Q86W47 whole entry): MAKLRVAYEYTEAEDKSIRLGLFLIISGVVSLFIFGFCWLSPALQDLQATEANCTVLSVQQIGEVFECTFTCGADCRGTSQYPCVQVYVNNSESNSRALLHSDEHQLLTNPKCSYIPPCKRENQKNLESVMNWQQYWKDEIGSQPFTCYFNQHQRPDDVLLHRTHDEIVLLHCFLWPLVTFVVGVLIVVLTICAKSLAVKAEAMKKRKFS
Sequence of CYP450 2A6 (P11509 whole entry): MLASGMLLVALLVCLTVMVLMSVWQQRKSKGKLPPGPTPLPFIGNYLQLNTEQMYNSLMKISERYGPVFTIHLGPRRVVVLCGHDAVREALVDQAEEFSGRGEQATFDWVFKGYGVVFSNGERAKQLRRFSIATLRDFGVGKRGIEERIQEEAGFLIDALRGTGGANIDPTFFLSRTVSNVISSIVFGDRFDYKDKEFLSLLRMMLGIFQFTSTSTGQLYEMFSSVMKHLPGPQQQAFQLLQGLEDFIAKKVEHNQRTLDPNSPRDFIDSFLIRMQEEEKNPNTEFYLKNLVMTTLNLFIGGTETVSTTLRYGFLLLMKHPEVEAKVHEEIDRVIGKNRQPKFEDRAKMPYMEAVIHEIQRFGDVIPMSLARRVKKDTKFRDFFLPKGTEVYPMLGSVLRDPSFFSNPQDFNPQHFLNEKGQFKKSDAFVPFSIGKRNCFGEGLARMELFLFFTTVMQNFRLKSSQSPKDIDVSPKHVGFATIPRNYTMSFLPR

N[C@@H]1C[C@H]1c1ccccc1 (racemic) [Tranylcypromine, reference compound]
EC50 [1]: 200 nM

CC(=O)N1CCN(c2ccc(OCC3COC(Cn4ccnc4)(c4ccc(Cl)cc4Cl)O3)cc2)CC1 (stereo not drawn) [Ketoconazole, reference compound]
EC50 [2]: 2900 nM

CC(CO)NC(=O)c1cccc(C=CCCCC(=O)N(C)C)c1 (stereo not drawn) [VSN16, 3‐(6‐(dimethylamino)‐6‐oxohex‐1‐enyl)‐N‐(1‐hydroxypropan‐2‐yl)benzamide]
Visible signs of sedation [3]: failed to induce visible signs of sedation
Inhibition of spasticity ([4]; 1 mg·kg^−1 i.v., racemate): significantly inhibit spasticity
EC50 [5]: ~10 nM
Antagonism of the action by SR141716A ([5]; pre‐incubation of 31.6 nM SR141617A): antagonized
Inhibition of spasticity [6]: significantly inhibit spasticity
Hypomotility in open field [7]: did not induce
Hypothermia ([8]; 1 mg·kg^−1 i.v., 20 min after administration): did not induce
Cannabimimetic effects after injection directly into the CNS ([8]; intracerebral (i.c.) route): failed to induce cannabimimetic effects

C[C@@H](CO)NC(=O)c1cccc(/C=C\CCCC(=O)N(C)C)c1 [VSN16S]
EC50 [5]: 37 nM
EC50 [9]: 140 nM

CNC(=O)CCC/C=C\c1cccc(C(=O)N[C@H](C)CO)c1 [VSN22R, (R,Z)‐N‐(1‐hydroxypropan‐2‐yl)‐3‐(6‐(methylamino)‐6‐oxohex‐1‐en‐1‐yl)benzamide]
Inhibition of spasticity ([4]; 5 mg·kg^−1 i.v.): could inhibit the spasticity
EC50 [5]: 9 nM
Plasma level of the named species [10]: 106 ± 6.1 ng/mL
concentration at 1 week [11]: > 100 nM
Single BKCa channel activity [12]: facilitated single BKCa channel activity

CC(=O)Oc1ccc(C(c2ccc(OC(C)=O)cc2)c2ccccn2)cc1 [bisacodyl, reference compound]
half-life at 1 μM [13]: 2 min

CNC1(c2ccccc2Cl)CCCCC1=O (stereo not drawn) [ketamine]
EC50 [14]: ~25000 nM
Effect on VSN16R relaxation of methoxamine-evoked contraction [15]: can inhibit the mechanism of action of VSN16R

Cc1ncc2n1-c1ccc(Cl)cc1C(c1ccccc1F)=NC2 [midazolam, reference compound]
half-life at 1 μM [16]: 17 min
